Patent US20230016182A1, “EO/PO-MODIFIED 9-PHENYLACRIDINE PHOTOSENSITIZERS AND APPLICATION THEREOF” (Changzhou Tronly New Electronic Materials Co., Ltd., priority 2019, published 2023)

Assay: Photosensitizer solubility test in 2-butanone and PGMEA
Type: physicochemical
Details: Test temperature 25° C.; for Solubility in 2-butanone: solvent 2-butanone
Source text: Among them, 9-phenylacridine (denoted as C7, produced by CHANGZHOU TRONLY NEW ELECTRONIC MATERIALS CO., LTD.) was used for comparison.

Row | SMILES | Solubility in 2-butanone | Solubility in PGMEA (solvent PGMEA)
1 | COCCOCCOCCOc1ccc(-c2c3ccccc3nc3ccccc23)cc1 [Product C1] | 21.10 g | –
2 | c1ccc(-c2c3ccccc3nc3ccccc23)cc1 [Product C7, 9-phenylacridine] | 0.74 g | 0.51 g
